From patent US20060018940A1, “Stabilized antimicrobial composition” (E. I. DU PONT DE NEMOURS AND COMPANY, priority 2004, published 2006)
Several values for one entry are separate records, joined by “and”; a condition that tells them apart may be missing. Identical values can stand only once. Entries after “also recorded” stand apart in the source; their conditions may differ. Like-named read-outs stand apart in the source and are kept apart here.

Key:
Assay type in all cases: cell-based
[1] = system: Aspergillus fumigatus ATCC 1098; test: Fungicidal activity (modified AOAC Method 955.17), surviving spores; conditions: for reduction of the fungal bioburden (words): within 15 minutes of treatment, amounts equivalent to those in the tablet solution
Method: This assay had several modifications from the published AOAC Fungicidal Activity of Disinfectants Protocol, Method 955.17. Aspergillus fumigatus ATCC 1098 was grown on Malt Extract Agar (available from Becton Dickinson, Billerica, Mass.) plates, and spores were harvested. Spores were stored in filter-sterilized Millipore water at −20° C. The spore preparation used for this experiment is detailed below. A freezer stock of A. fumigatus was defrosted and diluted to obtain an inoculum suspension for this experiment. The inoculum preparation was estimated to be approximately 5×10^6 conidia/mL. The following test solutions were prepared using filter sterilized Millipore water in steam-sterilized 4L bottles:
Water Control: (filter-sterilized water only), pH 6.28.
OXONE Control: 3.78 grams OXONE in 1 gallon (3.8L) sterile water, buffered to pH 4.43 using 0.98 g sodium bicarbonate and +5.25 g 10% H2SO4).
Chlorite Control: 0.26 grams of sodium chlorite in 1 gallon sterile water buffered to pH 4.55 (1.8 g 10% H2SO4).
Buffer Control: sodium bicarbonate, pH adjusted to 4.4.
Chlorine Dioxide: anthium dioxide (stabilized sodium chlorite available from IDI, North Kingston, R.I.) was acidified with HCl.
CLOROX control: 4.17% CLOROX bleach available from Clorox Company, Oakland, Calif. (v/v) in Millipore water by mixing 4.17 mL of Clorox bleach and water up to 100 mL total volume.
Tablet test Solution (Example 21: 2 tablets of Example 6 were dissolved in one gallon (3.8 L) of deionized water. The total tablet weight was 5.13 grams. The pH of the resulting solution was 5.2.
Reaction tubes: 5 mL of each test solution was aliquoted into 25×150 mm test culture tubes, capped and labeled according to Table 10. 9 mL of D/E (Dey/Engley) Neutralizing Broth (available from Becton Dickinson, Billerica, Mass.) was added to each of 28 test tubes and the tubes were capped. Butterfield buffer blanks were arranged for dilution of neutralized samples, and Malt Extract Agar plates were numbered for spore enumerations of the diluted, neutralized samples. With a graduated pipette, 0.5 mL of spore inoculum (approx. 10^6 condia/mL) was added to the first tube of test solution and gently shaken. After 5 and 15 minute exposures to the respective test solutions, samples were gently shaken and 1 mL samples were removed from each reaction mixture (spore-test solution) using an Eppendorf pipette and placed in 9 mL D/E (Dey/Engley) Neutralizing Broth. The inoculum was further diluted to approximately 10^4 condia/mL. Two more reaction tubes (water and OXONE-chlorite) and four Dey/Engley neutralization tubes were prepared to evaluate the efficacy of the tablet solution versus a final inoculum density of 10^3 condia/mL in the reaction tube. Samples were reacted for 15 minutes only. Dilutions of neutralized samples were prepared. Two 100 μL aliquots of all samples in D/E (Dey/Engley) Neutralizing Broth were plated on Malt Extract Agar and incubated at 25 °C until the appearance of colonies. Plates were counted after colonies appeared, roughly 4 days after incubation. Several dilutions of the inoculum spore suspensions were also plated on Malt Extract Agar to obtain an accurate count of viable spores used as inoculum. The samples were incubated at 25° C. and counted after the appearance of colonies, after about 4 days of incubation.
Buffer control data was taken after 15 minutes. CLOROX control data was taken after 5 minutes of treatment.

[2] = system: Staphylococcus aureus ATCC 6538; test: Bacterial efficacy, suspension test (modified AOAC 965.13), plate count on TSA
[3] = system: Pseudomonas aeruginosa ATCC 15442; test: as above
[4] = system: Salmonella choleraesuis ATCC 10708
[5] = 5 min, 1 × 10^6 conidia/mL inoculum in reaction mix, 2 replicates average, 2 Tabs 3.8 L, OXONE 3.78 g/gallon, chlorite 0.26 g/gallon, ClO2 ~23 ppm, 4.17% CLOROX
[6] = 15 min, 1 × 10^6 conidia/mL inoculum in reaction mix, 2 replicates average, 2 Tabs 3.8 L, OXONE 3.78 g/gallon, chlorite 0.26 g/gallon, ClO2 ~23 ppm
[7] = 30 sec exposure, 1,008 ppm Oxone, 55.5 ppm Chlorite, 23.2 ppm ClO2
[8] = 30 sec exposure, Example 20 = 1,008 ppm Oxone + 55.5 ppm Chlorite, controls 1,008 ppm Oxone, 55.5 ppm Chlorite, 23.2 ppm ClO2, low level of detection 1.0E+01
[9] = 10 min exposure, 1,008 ppm Oxone, 55.5 ppm Chlorite, 23.2 ppm ClO2
[10] = 10 min exposure, 1,008 ppm Oxone, 55.5 ppm Chlorite, 23.2 ppm ClO2, low level of detection 1.0E+01
[11] = 30 sec exposure, 1,008 ppm Oxone, 55.5 ppm Chlorite, 23.2 ppm ClO2, low level of detection 1.0E+01

Molecule | Surviving bioburden counts (germinating spores - conidia/mL) [1, 5] | Surviving bioburden counts (germinating spores - conidia/mL) [1, 6] | Δt (log difference test and control densities) [2, 7] | CFU/mL [2, 8] | Δt (log difference test and control densities) [2, 9] | CFU/mL [2, 10] | Δt (log difference test and control densities) [3, 7] | CFU/mL [3, 11] | Δt (log difference test and control densities) [3, 9] | CFU/mL [3, 10] | other results
[O][Cl+][O-] [ClO2, chlorine dioxide] | – | – | – | – | – | – | – | – | – | – | Surviving bioburden counts (germinating spores - conidia/mL) [1]: 0.00E+00 conidia/mL; log A. fumigatus spores killed [1]: 5 log; CFU/mL [2]: 1.00E+01 CFU/mL; Δt (log difference test and control densities) [2]: 5.1 log and 5.2 log; CFU/mL [3]: 1.00E+01 CFU/mL; Δt (log difference test and control densities) [3]: 5 log and 5.0 log and 5.1 log; CFU/mL [4]: 1.00E+01 CFU/mL; Δt (log difference test and control densities) [4]: 5.1 log and 5.3 log
sodium chlorite | 4.25E+05 conidia/mL | 6.25E+05 conidia/mL | 0.0 log | 1.23E+06 CFU/mL | 0.1 log | 1.20E+06 CFU/mL | −0.1 log | 1.17E+06 CFU/mL | 0.0 log | 1.21E+06 CFU/mL | reduction of the fungal bioburden (words) ([1]; listed as chlorite): not able to reduce the bioburden; reduction of the fungal bioburden (words) ([1]; listed as sodium chlorite): ineffective in reducing the fungal bioburden; Δt (log difference test and control densities) [4, 7]: −0.3 log; CFU/mL [4, 11]: 3.09E+06 CFU/mL; Δt (log difference test and control densities) [4, 9]: 0.2 log; CFU/mL [4, 10]: 1.27E+06 CFU/mL
triple salt of potassium monopersulfate, potassium hydrogen sulfate and potassium sulfate [Oxone] | 3.45E+05 conidia/mL | 5.70E+05 conidia/mL | 0.0 log | 1.52E+06 CFU/mL | 0.4 log | 6.15E+05 CFU/mL | 0.0 log | 9.50E+05 CFU/mL | 5.1 log | 1.00E+01 CFU/mL | reduction of the fungal bioburden (words) [1]: not able to reduce the bioburden; also recorded: ineffective in reducing the fungal bioburden
